Source: patent publication US20160113958A1, “MODULATORS OF ADP-DEPENDENT GLUCOKINASE (ADPGK) AND GLYCEROL-3-PHOSPHATE DEHYDROGENASE (GPD2) FOR THERAPY” (DEUTSCHES KREBSFORSCHUNGSZENTRUM STIFTUNG DES ÖFFENTLICHEN …, priority 2011, published 2016)
Where two headings read alike, the source gives them in different places. Blank lines part the entries; values can stand above or below the molecule they belong to.

Key:
enolase (ENO) = experiment: Enolase (ENO) reverse reaction activity; format: biochemical, human
Protocol: Enolase (ENO) forward reaction was measured as NADH oxidation in ETC buffer containing 1 mM 2-phosphoglycerate, 1 mM ADP, 0.5 mM NADH, 2 U/ml LDH, 2 U/ml PK. The reverse reaction was assayed in ETC buffer containing 1 mM phosphoenolpyruvate, 1 mM ATP, 0.5 mM NADH, 2 U/ml LDH, 2 U/ml PK.

[1] = tested on: in vitro expanded peripheral human T cells; experiment: Determination of ROS generation (activation-induced oxidative signal, H2DCF-DA, FACS); format: cell-based; settings: for oxidative signal generation (T cell activation-induced mitochondrial ROS) with respiratory chain inhibitors: 15 min pre-treatment, plate-bound anti-CD3 (30 μg/ml) or PMA (10 ng/ml) 1 h (FIG. 9A)
Protocol: (§1) T cell line Jurkat J16-145 cells, J16 sub-clone (2), were cultured in RPMI 1640 (+L-glutamine), 10% foetal calf serum (FCS). Gaussia luciferase NF-κB reporter J16-145 cells were cultured in IMDM, 10% FCS. Freshly isolated (“resting”) or phytohemagglutinin (PHA)-activated and 6-8 days in vitro expanded (“pre-activated”) peripheral human T cells were cultured at initial concentration of 2×10^6 cells/ml in RPMI 1640 (+L-glutamine), 10% FCS. For pre-activation-induced expansion, “resting” T cells were treated with 1 μg/ml PHA for 16 h, washed and subsequently cultured in the presence of 25 U/ml IL-2 for 6-8 days. These cells are referred to as “T cells” in the text, if not stated differently.
(§2) Cells were stained with H2DCF-DA (5 μM) for 30 min. Next, cells were divided and 1 h stimulated with either plate-bound anti-CD3 antibody (30 μg/ml) or PMA (10 ng/ml). Treatment was terminated by ice-cold PBS and ROS generation was determined by FACS analysis (Canto II, Becton Dickinson). ROS generation was quantified as the increase in mean fluorescence intensity (MFI), calculated according to the following formula: increase in MFI (%)=[(MFIstimulated−MFIunstimulated)/MFIunstimulated]×100 (3).

Jurkat T cells = experiment: as above; format: cell-based, human; settings: 30 min pre-incubation with DOG/pyruvate, compared to equimolar glucose (Glc)/pyruvate
Protocol: as §1
as §2, with “(3). […]” for “(3).”

[2] = tested on: ETC complexes I, II and III; experiment: Steady-state activity of ETC enzymatic complexes in digitonin-permeabilized T cells; format: biochemical, human; settings: T cells pre-treated (20 min) with BIM, TCR triggering
Protocol: In vitro expanded T cells (at least 0.5×10^8) were snap-frozen in liquid nitrogen and subsequently incubated on ice in ETC buffer (20 mM Tris-HCl pH 7.4, 250 mM sucrose, 50 mM KCl, 5 mM MgCl2) with 0.015% digitonin for 30 min according to Chretien et al. (4) with minor modifications. Afterwards, cells were washed twice with ice-cold ETC buffer and subjected to assays.
Steady-state activity of ETC enzymatic complexes was determined as described (5, 6) using a computer-tunable spectrophotometer (Spectramax Plus Microplate Reader, Molecular Devices; Sunny Vale, Calif., USA) operating in the dual wavelength mode; samples were analyzed in temperature-controlled 96-well plates in a final volume of 300 μL. The addition of standard respiratory chain inhibitors was used to ascertain the specificity of the enzymatic assays. All enzymatic activities were normalized to protein concentration. For stimulated T cells ETC enzyme activities were measured after snap-freezing and digitonin-permeabilization (as described previously). To study electron flow from complex I or complex II to complex III digitonin-permeabilized cells or mitochondrial fractions were incubated with NADH or succinate and the reduction of cytochrome c in the presence of NaCN was measured.

GPD2 = GPD2 activity in mitochondrial fractions of T cells; format: biochemical, human
Protocol: (§3) Cells were disrupted using a 27×½″ needle in ice-cold ETC buffer and the homogenates were centrifuged at 600×g, 4° C. for 10 min. For preparation of the “high g” mitochondrial (pellet) as well cytosolic (supernatant) fraction the 600×g supernatant was centrifuged at 11.000×g, 4° C. for 20 min. For preparation of the “mitochondria-enriched” fractions, the 600×g supernatant was centrifuged 10 min, 4° C. at 3,500×g (pellet). Subsequently, for preparation of the “ER-enriched fraction” the 3,500×g supernatant was centrifuged at 11.000×g, 4° C. for 20 min. The mouse heart muscle mitochondria were prepared according to the procedure for “mitochondria-enriched” fraction as described (5).
Glycerol-3-phosphate-dehydrogenase (GPD2) activity was measured as cytochrome c reduction in ETC buffer containing 5 mM glycerol 3-phosphate, 2 mM NaCN, and 60 μM cytochrome c.

ADPGK = target: T1, ADPGK (Homo sapiens, UniProt Q9BRR6); experiment: ADP-dependent glucokinase (ADPGK) activity assay; format: biochemical; settings: for ADPGK activity in mitochondria-enriched membrane fractions ("high g" fractions): human T cells or Jurkat T cells, 1 h stimulation
T1 construct: endogenous in cells; host or cells: in vitro expanded human T cells or Jurkat T cells; "high g" mitochondrial or "ER-enriched" fraction
Protocol: as §3
ADPGK activity was assayed as NADP reduction in ETC buffer containing 1 mM ADP, 1 mM glucose, 0.5 mM NADP, 5 μM diadenosine pentaphosphate, and 0.05 U/ml glucose 6-phosphate dehydrogenase at pH 6.0 and 37° C. or 42° C. Assay was essentially based on the one previously described for the recombinant mouse ADPGK protein (9).

[3] = tested on: mitochondria-associated HK activity; experiment: Respiration-coupled hexokinase (HK)-like activity in T cell mitochondria ("high g" fraction); format: biochemical, human
T cells = experiment: Glucose uptake (D-[3-3H] glucose); format: cell-based, human; settings: after stimulation with anti-CD3 antibody or PMA
Protocol: Upon treatment, cells (1-2×10^7 cells) were washed and suspended in Krebs-Ringer buffer. Subsequently, cells were incubated with 1 μCi/ml D-[3-^3H] glucose for 10 min at 37° C. Afterwards, cells were washed twice with ice-cold Krebs-Ringer buffer and intracellular D-[3-^3H] glucose was detected using a scintillation counter (LS 6500 Liquid Scintillation Counter Beckman Coulter; Brea, Calif., USA).

[4] = tested on: in vitro expanded T cells; experiment: Oxygen electrode, mitochondrial respiratory rate; format: cell-based; settings: intact human T cells, soluble anti-CD3 antibody or PMA
Protocol: Mitochondrial respiratory rate was measured according to a previously described protocol (7) using computer-supported high-resolution Oroboros 1 oxygraph system (Paar, Graz, Austria). In vitro expanded T cells (5-10×10^7 cells) were placed in each electrode chamber and activated with soluble anti-CD3 antibody (10 μg/m, cross-linked with GAM, 2 μg/ml) or PMA (10 ng/ml). The experimental set-up was as previously described (8). “Mitochondrial respiratory rate” was calculated by subtracting “Background oxygen consumption rate” (recorded with a reference electrode in a presence of 5 μM oligomycin) from “Total oxygen consumption rate” (as described in (8)).

[5] = tested on: in vitro expanded human T cells; experiment: Ubiquinol/ubiquinone content determination (HPLC); format: cell-based; settings: PMA (10 ng/ml) 1 h, extracts from snap-frozen activated T cells
Protocol: At least 5×10^7 in vitro expanded human T cells were treated with plate-bound anti-CD3 antibody (30 μg/ml) or PMA (10 ng/ml) for 1 h. Cells were washed, pelleted, snap-frozen in liquid nitrogen and placed on dry ice. Ubiquinol/-on extraction was performed by addition of ice-cold 200 μl hexan: isopropanol (2:1) and subsequent centrifugation (15.000 g) for 5 min at 0° C. Next, 150 μl of the supernatant was immediately injected and separated by RP-HPLC. HPLC separation and identification conditions were based on previously published methods (10, 11). […] Identification was based on UV/VIS-DAD absorption spectra and facilitated by redox response detected with volt-amperometric detector. Quantitation was performed based on UV-VIS chromatograms at wavelengths: 275 nm (ubiquinone) and 289 nm (ubiquinol). Selected qualitative and quantitative results of UV-VIS/DAD analysis were confirmed by HPLC-MS/ESI (Agilent; Santa Clara, Calif., USA).

[6] = tested on: in vitro expanded peripheral human T cells; settings: previous work (ref. 3); cited from earlier work
mitochondrial AK = experiment: Adenylate kinase (AK) activity assay; format: biochemical; settings: 5 μM
Protocol: AK activity was assayed as NADP reduction in ETC buffer containing 1 mM ADP, 1 mM glucose, 0.5 mM NADP, 1 U/mL HK and 0.05 U/ml glucose 6-phosphate dehydrogenase at pH 7.5 and 37° C.

T1 sequence (Q9BRR6 23-497): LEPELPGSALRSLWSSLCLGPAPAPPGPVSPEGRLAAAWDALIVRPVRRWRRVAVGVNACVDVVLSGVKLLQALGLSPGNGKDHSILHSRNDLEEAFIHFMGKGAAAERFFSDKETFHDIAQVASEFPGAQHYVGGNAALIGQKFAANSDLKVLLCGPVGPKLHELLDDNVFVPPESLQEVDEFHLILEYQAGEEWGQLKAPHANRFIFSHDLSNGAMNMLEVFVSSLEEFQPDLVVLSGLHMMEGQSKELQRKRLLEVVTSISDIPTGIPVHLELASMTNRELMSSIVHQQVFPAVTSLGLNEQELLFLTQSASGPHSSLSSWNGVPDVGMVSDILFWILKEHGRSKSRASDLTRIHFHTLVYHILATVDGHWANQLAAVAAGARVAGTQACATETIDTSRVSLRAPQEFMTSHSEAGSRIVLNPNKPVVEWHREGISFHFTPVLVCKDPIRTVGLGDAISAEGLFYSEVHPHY

Molecule: [F-].[Na+] [NaF]
- reverse ENO activity (enolase (ENO); T cells): blocked

Molecule: antimycin
- oxidative signal generation (T cell activation-induced mitochondrial ROS) with respiratory chain inhibitors [1]: increased

Molecule: O=CC[C@@H](O)[C@H](O)[C@H](O)CO [DOG, 2-deoxy-glucose]
- activation-induced ROS ([1]; expanded human T cells, 30 min pre-incubation with DOG/pyruvate, compared to equimolar glucose (Glc)/pyruvate): lower amounts
- activation-induced ROS (Jurkat T cells): lower amounts

Molecule: [N-]=[N+]=[N-].[Na+] [NaN3]
- oxidative signal generation (T cell activation-induced mitochondrial ROS) with respiratory chain inhibitors [1]: not blocked

Molecule: C=C(C)[C@H]1Cc2c(ccc3c2O[C@@H]2COc4cc(OC)c(OC)cc4[C@@H]2C3=O)O1 [rotenone]
- oxidative signal generation (T cell activation-induced mitochondrial ROS) with respiratory chain inhibitors [1]: inhibition

Molecule: CO/C(=C/C(N)=O)[C@H](C)[C@H](/C=C/c1csc(-c2csc([C@@H](C)/C=C/C=C/C(C)C)n2)n1)OC [myxothiazol]
- oxidative signal generation (T cell activation-induced mitochondrial ROS) with respiratory chain inhibitors [1]: not

- T cell activation-induced enhancement of the ADPGK-like enzymatic activity (ADPGK; "high g" fractions, BIM pre-treatment (20 min)): completely abolished
Molecule: CN(C)CCCn1cc(C2=C(c3c[nH]c4ccccc34)C(=O)NC2=O)c2ccccc21 [BIM, bis-indolyl-maleimidate I]
- activation-induced changes of enzymatic activities of complexes I, II and III [2]: significantly blocked
- TCR-induced GPD2 activation (GPD2; mitochondrial fractions of activated T cells, BIM pre-treatment): significantly blocked
- TCR-induced mitochondrial ROS generation ([1]; 20 min pre-incubation, 1 h plate-bound anti-CD3 antibody (30 μg/ml)): inhibitor

Molecule: N#CC(C#N)=NNc1cccc(Cl)c1 [CCCP]
- sensitivity of the enhanced HK-like enzymatic activity ([3]; CCCP (0.125 μM), NaCN (10 mM)): insensitivity

Molecule: CCCCCCCCCCCCCC(=O)O[C@@H]1[C@@H](C)[C@@]2(O)[C@@H](C=C(CO)C[C@]3(O)C(=O)C(C)=C[C@@H]23)[C@@H]2C(C)(C)[C@]12OC(C)=O [PMA, phorbol 12-myristate 13-acetate]
- GPD2 activity (GPD2; mitochondria-enriched membrane fractions of pre-activated human T cells, PMA (10 ng/ml) 1 h): moderately up-regulated
- ADPGK activity in mitochondria-enriched membrane fractions ("high g" fractions) (ADPGK): Comparable up-regulation
- cellular uptake of radioactively labeled glucose (T cells): rapidly rose
- mitochondrial oxygen consumption [4]: significant inhibition
- rise in the content of ubiquinol over ubiquinone [5]: 57%

Molecule: CC[C@H]1/C=C/C=C/C[C@@H](C)[C@H](O)[C@@](C)(O)C(=O)[C@@H](C)[C@H](O)[C@@H](C)C(=O)[C@@H](C)[C@H](O)[C@@H](C)/C=C/C(=O)O[C@@H]2[C@H](C)[C@H](CC1)O[C@]1(CC[C@H](C)[C@H](C[C@@H](C)O)O1)[C@H]2C [oligomycin]
- oxidative signal generation (T cell activation-induced mitochondrial ROS) with respiratory chain inhibitors [1]: not blocked

- ADPGK activity in mitochondria-enriched membrane fractions ("high g" fractions) (ADPGK): enhanced
Molecule: anti-CD3 antibody: Monoclonal mouse antibody (OKT3) against human CD3, agonistic, used for TCR triggering
- cellular uptake of radioactively labeled glucose (T cells): rapidly rose
- mitochondrial oxygen consumption [4]: significant inhibition

Molecule: NaVO3
- TCR-induced increase of reverse ENO activity (enolase (ENO)): abolished
- reverse ENO activity (enolase (ENO)): reduced the activity but did not block it

Molecule: CN(C)C(=N)N=C(N)N [metformin]
- oxidative signal generation (T cell activation-induced mitochondrial ROS) with respiratory chain inhibitors [1]: inhibition
- generation of the oxidative signal [6]: blocked

Molecule: O=C(CC(=O)C(F)(F)F)c1cccs1 [TTFA]
- oxidative signal generation (T cell activation-induced mitochondrial ROS) with respiratory chain inhibitors [1]: moderate inhibition

Molecule: diadenosine pentaphosphate [Ap5A]
- inhibition of TCR-induced HK-like activity ([3]; 5 μM, presence of ADP and succinate): up to 40%
- activation-induced rise in HK-like activity ([3]; Ap5A 5 μM): unaffected
- inhibition of mitochondrial AK (mitochondrial AK): 80-90%
